Here are results for two molecules from paper PMC6886544.

Data set [1] has as its target T1, EGFR-wt (Homo sapiens, UniProt P00533). Kind of data set: Kinetic characterization (Ki, kinact), EGFR-wt.
The subject of data set [2] is HCC827 cells (EGFR-delE746_A750). Kind of data set: CellTiter-Glo viability assay, HCC827.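 Also: luminescence from ATP content as a measure of metabolically active cells, in RPMI with 10% FBS, compound added as serial dilutions after 24 h of preculture.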 Particulars: Homo sapiens, read-out: EGFR CTG EC50 HCC827. The data set is classed as cell-based. In general terms: Cellular ATP, detected with luciferase, serves as a proxy for viable cell number.
Protocol: (§7) A431, HCC827, H1975, A549 and H358 cells were obtained from the American Type Culture Collection (ATCC). A431 cells were cultured in DMEM high glucose media (Life Technologies, Germany), and HCC827, H1975, A549 as well as H358 cells were cultured in RPMI media (Life Technologies, Germany), both containing L-Glutamine and were supplemented with 10% FBS (GE Healthcare, Austria) and 1% PenStrep (Life Technologies, Germany) in a humidified incubator at 37 °C and 5% CO2.
(§8) Cells were seeded at cell numbers that assure linearity and optimal signal intensity (150-300 cells/well, 25 µL) and cultured for 24 hours in serum- and antibiotics-containing media in humidified chambers at 37 °C / 5% CO2. The cells were then treated with EGFR inhibitors in serial
(§9) Afterwards viability studies were carried out using CellTiter-Glo Assay (Promega, USA) that is a homogeneous method of determining the number of viable cells in culture. It is based on quantification of ATP, indicating the presence of metabolically active cells. For these studies, CellTiter-Glo reagent was prepared according to the instructions of the kit and diluted 1:1 with the complete growth medium suitable for the corresponding cell line. Thereon, reagent and assay plates were equilibrated at room temperature for 20 min. Equal volumes of the reagent were added to the volume of culture medium present in each well (25 µL). The plates were mixed for 2 minutes on an orbital shaker to induce cell lysis. The microplates were then incubated at room temperature for 20 minutes for stabilization of the luminescent signal. Following incubation the luminescence was recorded on an EnVision microplate reader (Perkin Elmer) using 500 ms integration time. The data was then analyzed using the Quattro Research Software Suite for EC50-determination. As quality control the Z’-factor was calculated from 16 positive and negative control values. Only assay results showing a Z’-factor ≥0.5 were used for further analysis. All data points were measured in duplicates for each plate and were replicated in at least two plates.
For data set [3], the system named is H1975 cells (EGFR-L858R/T790M). Kind of data set: CellTiter-Glo viability assay, H1975. The following applies: Homo sapiens, NCI-H1975, 96 h.
Protocol: as §7, §8, §9
Data set [4] addresses T2, EGFR-L858R (Homo sapiens, UniProt P00533, L858R). In words: Kinetic characterization (Ki, kinact), EGFR-L858R.
In data set [5] the target is T2, EGFR-L858R. In words: HTRF KinEASE-TK activity-based assay, EGFR-L858R. On the technique in general: TR-FRET usually uses a lanthanide donor and a delayed reading to cut background.
In a further data set the test system is H358 cells (KRAS mutant). In words: CellTiter-Glo viability assay, H358.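 Also: viable cell number estimated from ATP-dependent luminescence following exposure to serially diluted inhibitor.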 Format: cell-based. The following applies: Homo sapiens, read-out: KRAS CTG EC50 H358.
For data set [6], the target named is T3, EGFR-L858R/T790M (Homo sapiens, UniProt P00533, L858R/T790M). In words: HTRF KinEASE-TK activity-based assay, EGFR-L858R/T790M. Particulars: EGFR HTRF IC50 L858R/T790M, ATP at Km (4 µM), 30 min preincubation; mean ± SD of three independent measurements in duplicates.
Data set [7] deals with T1, EGFR-wt. In words: HTRF KinEASE-TK activity-based assay, EGFR-wt. The following applies: EGFR HTRF IC50 wt, ATP at Km (9.5 µM), 30 min preincubation; mean ± SD of three independent measurements in duplicates.
For data set [8], the target named is T3, EGFR-L858R/T790M. In words: Kinetic characterization (Ki, kinact), EGFR-L858R/T790M.
Data set [9] concerns A431 cells (EGFR wild type). Kind of data set: CellTiter-Glo viability assay, A431. Particulars: Homo sapiens, A-431, 96 h.
Protocol: as §7, §8, §9
For the next data set, the system named is A549 cells (KRAS mutant). Kind of data set: CellTiter-Glo viability assay, A549. The following applies: Homo sapiens, A549, 96 h, read-out: KRAS CTG EC50 A549.
For data set [10], the system named is EGFR and downstream cascade phosphorylation in H1975 cells. Kind of data set: Western blot analysis in H1975 cells. Format: cell-based. Particulars: 1 h inhibitor then EGF stimulation. Here is the method: and incubated at 37 °C and 5% CO2. On day 2 cells were starved over night with media containing 0.5% FBS to be incubated on day 3 for 1 h with EGFR inhibitors following an additional 30 min of EGF stimulation at 50 ng/mL. The media was discarded and cells were washed once with DPBS
1x. Using 100 μL per well of lysis buffer, cells were then scraped off and lysed while rotating (Stuart Scientific, Staffordshire, UK) for 1 h at 4 °C. […] Supernatant was transferred into new tube and protein concentrations were determined with the Bio-Rad Protein Assay (Bio-Rad Laboratories, Hercules, CA). […]
captured and quantified using a FUJI LAS3000 system with Science Lab 2001 ImageGauge 4.0 software (Fujifilm Medial Systems, Stamford CT, USA). […]
glycerol, 1 mM TCEP, pH 8) on ice for 1 h. We analyzed the aliquots by ESI-MS using an Thermo Fisher Scientific Dionex UltiMate 3000 HPLC system connected to a Thermo Fisher Scientific Velos Pro (2d ion trap). Therefore, 5 μL of sample was injected and separated using a Vydac 214TP C4 5 μm column (150 mm x 2.1 mm) starting at 20% of solvent B for 5 minutes followed by a gradient up to 90% of solvent B over 14 min with a flow rate of 210 μL/min with 0.1% TFA in water as solvent A and 0.1% TFA in MeCN as solvent B. A mass range of 700 to 2000 m/z was scanned and raw data was deconvoluted and analyzed with MagTran software (Z.Q. Zhang, A.G. […]
(In general: Immunoblotting shows a protein as a band on a membrane.)

The nature of data set [11]: Microsomal stability (phase I), mouse. The data set is classed as in vitro ADME. Particulars: mouse liver microsomes, up to 60 minutes, 37 °C. Here is the method: (§1) Microsomal stability (phase I) assay.
(§2) Metabolic stability under oxidative conditions was measured in liver microsomes from different
(§3) time up to 50 minutes (HLM) or 60 minutes (MLM) at 37 °C. Based on the compound half-life t1/2,
(§4) the in vitro intrinsic clearance CLint was calculated. […]

A further data set is described as follows: Plasma stability, mouse. The data set is classed as in vitro ADME. Particulars: 5 µM, 1 h, 37 °C.
The next data set is described as follows: Plasma stability, human. Format: in vitro ADME. Particulars: 5 µM, 1 h, 37 °C.
The next data set can be described thus: Caco-2 assay. The following applies: human, Caco-2, 5 μM, pH 7.4, 2 hours. Format: in vitro ADME. Here is the method:
For Caco-2 cell assay, a 10 mM DMSO stock of the compound was diluted to a final concentration of 5 μM in HBSS buffer pH 7.4 and incubated for 2 hours at 37 °C and 5% CO2 on a monolayer of Caco-2 cells (ATCC) that had been grown on a transwell membrane (Millipore, Schwalbach, Germany) for 21 days. The compound concentration was measured in the receiver as well as the donor well. Apparent permeability (Papp) from either the apical to basolateral direction or vice versa […]
is the donor drug concentration at t = 0, and dQ/dt is the amount of drug transported within the given time period of 2 hours. […]

A short description of data set [12]: Plasma protein binding, human. Format: in vitro ADME. The following applies: equilibrium dialysis, 37 °C. Here is the method: (§5) Assessment of plasma protein binding was measured by equilibrium dialysis by incubating plasma
(§6) based determination of final compound concentrations. […]

Data set [13] in a line: Plasma protein binding, mouse. Format: in vitro ADME. Particulars: equilibrium dialysis, 37 °C. Here is the method:
as §5, §6

A short description of data set [14]: Microsomal stability (phase I), human. The data set is classed as in vitro ADME. The following applies: human liver microsomes, up to 50 minutes, 37 °C. The method, then:
as §1, §2, §3, §4

Data set [15] can be described thus: PAMPA (parallel artificial membrane permeability assay). Format: in vitro ADME. The following applies: pH 7.4, 500 µM, 16 hours. The method, then:
masses and 0.02 Da for fragment ions. FDR was adjusted to 1% on peptide spectrum match […]
as §1
Metabolic stability under oxidative conditions was measured in liver microsomes from different species by LC/MS-based measuring of depletion of compound at a concentration of 3 µM over time up to 50 minutes (HLM) or 60 minutes (MLM) at 37 °C. Based on the compound half-life t1/2, the in vitro intrinsic clearance CLint was calculated.
Plasma stability was measured by LC/MS-based determination of the percentage of remaining compounds at a concentration of 5 µM after incubation in plasma obtained from different species […]
Assessment of plasma protein binding was measured by equilibrium dialysis by incubating plasma with the compound of interest at a concentration of 5 µM for 6 h at 37 °C followed by LC/MS-based determination of final compound concentrations.
PAMPA (Parallel artificial membrane permeability assay). […]
temperature in a wet chamber, the optical density of the solution in the receiver well was measured between 250 and 500 nm in intervals of 10 nm. The percent flux was calculated from […]

A word on the Ki: it is the dissociation constant of the complex between target and ligand, obtained from inhibition or displacement. As a reminder, the kinact is the maximal first-order rate at which the target is inactivated. What is called kinact/KI is the second-order rate constant of inactivation. A word on the EC50: it is the concentration that produces a half-maximal response. In general, IC50 refers to the point on the concentration scale where inhibition reaches its midpoint. Low readings indicate greater potency in that assay, high ones weaker potency in that assay. What is called microsomal CLint is the capacity of the preparation to metabolise the compound, expressed as a volume cleared per time. For orientation: fraction unbound means free concentration divided by total concentration. A low value points to extensive binding.

SMILES strings stand for the structures. Where two headings read alike, the source gives them in different places. Bounds are passed on as bounds.

T1 sequence (P00533 25-1210): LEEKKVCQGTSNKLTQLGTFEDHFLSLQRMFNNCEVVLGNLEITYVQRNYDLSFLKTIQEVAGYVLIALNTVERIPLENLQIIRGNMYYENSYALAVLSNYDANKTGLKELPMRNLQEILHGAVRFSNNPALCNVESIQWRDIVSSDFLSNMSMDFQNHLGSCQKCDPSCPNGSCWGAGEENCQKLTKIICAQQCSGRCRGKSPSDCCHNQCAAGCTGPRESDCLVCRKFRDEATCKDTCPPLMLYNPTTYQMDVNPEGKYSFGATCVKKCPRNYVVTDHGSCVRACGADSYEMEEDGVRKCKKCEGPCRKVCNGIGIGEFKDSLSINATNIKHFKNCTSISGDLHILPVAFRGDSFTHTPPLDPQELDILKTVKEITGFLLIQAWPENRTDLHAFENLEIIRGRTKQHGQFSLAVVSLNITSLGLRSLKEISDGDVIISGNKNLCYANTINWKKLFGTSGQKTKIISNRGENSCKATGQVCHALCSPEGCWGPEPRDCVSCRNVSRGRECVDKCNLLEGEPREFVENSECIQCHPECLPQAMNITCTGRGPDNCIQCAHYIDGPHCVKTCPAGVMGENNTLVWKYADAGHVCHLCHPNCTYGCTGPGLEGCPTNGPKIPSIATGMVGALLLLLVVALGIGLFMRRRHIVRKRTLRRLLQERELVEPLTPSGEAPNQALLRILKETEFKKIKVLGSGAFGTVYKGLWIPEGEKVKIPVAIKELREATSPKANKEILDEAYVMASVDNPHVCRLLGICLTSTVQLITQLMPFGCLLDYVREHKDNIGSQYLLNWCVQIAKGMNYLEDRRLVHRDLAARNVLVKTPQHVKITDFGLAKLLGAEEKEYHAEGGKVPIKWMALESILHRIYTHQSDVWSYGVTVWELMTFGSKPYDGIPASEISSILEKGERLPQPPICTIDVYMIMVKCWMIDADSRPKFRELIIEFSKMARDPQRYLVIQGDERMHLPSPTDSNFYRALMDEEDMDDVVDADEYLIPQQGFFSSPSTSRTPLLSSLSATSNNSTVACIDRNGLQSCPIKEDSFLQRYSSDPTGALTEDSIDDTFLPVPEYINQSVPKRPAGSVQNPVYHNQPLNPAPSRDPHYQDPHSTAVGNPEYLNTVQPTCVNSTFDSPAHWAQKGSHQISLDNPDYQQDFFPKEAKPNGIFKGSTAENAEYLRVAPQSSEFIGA
T2 sequence (P00533 25-1210 L858R): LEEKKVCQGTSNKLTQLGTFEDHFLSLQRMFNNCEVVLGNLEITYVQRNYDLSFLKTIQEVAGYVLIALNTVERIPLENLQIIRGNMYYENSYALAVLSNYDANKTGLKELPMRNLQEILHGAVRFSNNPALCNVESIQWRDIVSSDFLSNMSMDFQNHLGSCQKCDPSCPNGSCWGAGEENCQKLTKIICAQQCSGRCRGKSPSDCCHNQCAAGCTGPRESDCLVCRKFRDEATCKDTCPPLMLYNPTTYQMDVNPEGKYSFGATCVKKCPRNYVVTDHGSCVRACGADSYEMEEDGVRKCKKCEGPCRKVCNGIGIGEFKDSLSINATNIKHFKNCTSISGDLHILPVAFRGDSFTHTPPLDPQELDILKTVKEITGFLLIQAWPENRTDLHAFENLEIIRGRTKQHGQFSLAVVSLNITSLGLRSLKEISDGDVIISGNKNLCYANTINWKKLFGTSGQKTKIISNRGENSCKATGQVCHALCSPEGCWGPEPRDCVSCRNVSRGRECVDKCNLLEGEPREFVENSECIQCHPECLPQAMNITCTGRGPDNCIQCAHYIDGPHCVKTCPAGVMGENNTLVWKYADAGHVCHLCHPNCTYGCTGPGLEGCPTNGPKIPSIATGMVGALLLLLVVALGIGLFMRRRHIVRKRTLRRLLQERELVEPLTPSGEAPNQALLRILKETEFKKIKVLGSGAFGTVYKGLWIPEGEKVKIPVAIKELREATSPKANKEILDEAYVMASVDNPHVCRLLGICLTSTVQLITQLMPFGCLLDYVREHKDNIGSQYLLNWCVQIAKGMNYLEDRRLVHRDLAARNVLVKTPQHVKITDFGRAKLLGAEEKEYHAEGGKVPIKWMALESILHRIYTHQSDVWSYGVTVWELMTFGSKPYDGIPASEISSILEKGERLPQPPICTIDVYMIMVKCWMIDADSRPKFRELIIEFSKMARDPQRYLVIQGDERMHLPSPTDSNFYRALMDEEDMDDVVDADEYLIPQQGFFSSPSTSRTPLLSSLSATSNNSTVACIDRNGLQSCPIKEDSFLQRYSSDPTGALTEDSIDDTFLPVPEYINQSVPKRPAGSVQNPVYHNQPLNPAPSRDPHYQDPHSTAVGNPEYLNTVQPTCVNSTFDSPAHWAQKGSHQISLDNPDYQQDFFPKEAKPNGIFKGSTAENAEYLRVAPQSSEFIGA
T3 sequence (P00533 25-1210 T790M/L858R): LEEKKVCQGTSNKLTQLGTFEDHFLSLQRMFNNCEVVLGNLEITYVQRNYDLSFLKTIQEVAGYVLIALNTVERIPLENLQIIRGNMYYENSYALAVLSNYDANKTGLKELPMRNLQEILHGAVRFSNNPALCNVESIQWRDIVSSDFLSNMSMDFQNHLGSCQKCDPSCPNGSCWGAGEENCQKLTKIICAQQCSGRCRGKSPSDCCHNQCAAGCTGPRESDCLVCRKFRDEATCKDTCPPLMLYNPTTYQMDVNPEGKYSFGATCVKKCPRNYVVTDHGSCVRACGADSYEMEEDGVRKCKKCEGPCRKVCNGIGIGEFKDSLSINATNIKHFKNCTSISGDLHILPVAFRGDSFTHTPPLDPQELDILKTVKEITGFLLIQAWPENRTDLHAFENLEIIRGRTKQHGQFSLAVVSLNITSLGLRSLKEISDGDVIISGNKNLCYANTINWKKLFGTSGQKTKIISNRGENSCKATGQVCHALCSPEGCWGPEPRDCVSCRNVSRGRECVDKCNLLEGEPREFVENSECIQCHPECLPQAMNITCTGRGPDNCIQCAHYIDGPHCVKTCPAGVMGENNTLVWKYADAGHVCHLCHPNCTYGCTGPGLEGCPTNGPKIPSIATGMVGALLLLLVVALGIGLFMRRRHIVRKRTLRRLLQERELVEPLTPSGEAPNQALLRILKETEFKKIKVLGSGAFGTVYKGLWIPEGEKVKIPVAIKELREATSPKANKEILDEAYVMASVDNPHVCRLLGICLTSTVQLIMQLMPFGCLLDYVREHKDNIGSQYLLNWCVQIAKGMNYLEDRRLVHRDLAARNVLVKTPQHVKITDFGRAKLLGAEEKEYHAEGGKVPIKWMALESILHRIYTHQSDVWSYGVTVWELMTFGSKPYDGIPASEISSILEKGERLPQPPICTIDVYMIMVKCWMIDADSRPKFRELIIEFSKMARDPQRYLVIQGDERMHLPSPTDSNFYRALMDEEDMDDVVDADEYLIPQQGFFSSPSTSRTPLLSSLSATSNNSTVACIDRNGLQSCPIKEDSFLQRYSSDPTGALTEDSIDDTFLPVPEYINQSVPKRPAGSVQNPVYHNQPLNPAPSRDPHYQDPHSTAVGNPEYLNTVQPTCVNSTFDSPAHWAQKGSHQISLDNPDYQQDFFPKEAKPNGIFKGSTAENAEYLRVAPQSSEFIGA
Protocol for A549 cells (KRAS mutant): as §7, §8, §9
Protocol for H358 cells (KRAS mutant): as §7, §8, §9

For `C=CC(=O)Nc1cccc(-c2c(-c3ccc(N4CCN(C)CC4)cc3)[nH]c3ncn(C(C)C)c(=O)c23)c1` [Compound 29g], the figures for the Ki at EGFR-wt [1], on EGFR-L858R [4] and at EGFR-L858R/T790M [8] were 10 ± 1 nM, 10 ± 1 nM and 15 ± 3 nM, respectively. The values for the kinact on EGFR-wt [1], on EGFR-L858R [4] and at EGFR-L858R/T790M [8] were 0.00167 s⁻¹, 0.00317 s⁻¹ and 0.00433 s⁻¹, respectively. The figures for the kinact/KI on EGFR-wt [1], at EGFR-L858R [4] and on EGFR-L858R/T790M [8] were 160000 ± 60000 M⁻¹ s⁻¹, 310000 ± 110000 M⁻¹ s⁻¹ and 300000 ± 90000 M⁻¹ s⁻¹, respectively. Moreover, the 50% effective concentration (EC50) in [2] (HCC827, 96 hours, CellTiter-Glo) came out at 67 ± 7 nM; in data set [3] (read-out: EGFR CTG EC50 H1975, H1975, 96 hours, CellTiter-Glo) it was 65 ± 11 nM; in the data set on H358 cells (KRAS mutant) (NCI-H358, H358, 96 hours, CellTiter-Glo) it was 9390 ± 3380 nM; in data set [9] (read-out: EGFR CTG EC50 A431, A431, 96 hours, CellTiter-Glo) it was 1410 ± 917 nM; with A549 cells (KRAS mutant), 5720 ± 240 nM. Also, the IC50 is 0.4 nM on EGFR-L858R [5], 1 ± 0.3 nM against EGFR-L858R/T790M [6] and 1 ± 0.1 nM against EGFR-wt [7]. Further, the “concentration at which phosphorylation of EGFR and downstream proteins was reduced/inhibited” value in data set [10] was “around 100 nM”. Also, the microsomal CLint at 3 µM in data set [11] turned out to be 8 µL/min/mg.
As to `C=CC(=O)Nc1cc(Nc2nccc(-c3cn(C)c4ccccc34)n2)c(OC)cc1N(C)CCN(C)C` [Osimertinib, osimertinib, reference compound], the Plasma stability was determined as 75 %remain in the data set “Plasma stability, mouse” and 78 %remain in the data set “Plasma stability, human”. For the same molecule, the EC50 was under 14 nM in data set [2] (HCC827, 96 h); 16 ± 5 nM in data set [3] (read-out: EGFR CTG EC50 H1975); 2840 ± 362 nM in the data set on H358 cells (KRAS mutant) (NCI-H358, 96 h); […] in [9] (read-out: EGFR CTG EC50 A431); 1830 ± 259 nM in the data set with A549 cells (KRAS mutant). Besides, in the data set “Caco-2 assay” (apical to basolateral, read-out: Caco-2: Papp AB), the Papp A→B at 2 h, 5 μM turned out to be 5 ×10⁻⁶ cm/s. Besides, in “Caco-2 assay” (basolateral to apical, read-out: Caco-2: Papp BA), the Papp B→A at 2 h, 5 μM stood at 6.8 ×10⁻⁶ cm/s. In addition, the fraction unbound at 6 h, 5 µM in data set [12] is 0.029; in [13], 0.024. The results for the microsomal CLint at 3 µM in data set [14] and in data set [11] were 4.1 µL/min/mg and 60 µL/min/mg, respectively. This molecule gave a PAMPA flux in data set [15] of 88%.
